Data as given in PMC4143171 (Journal of nuclear medicine : official publication, Society …, 2010).
Bridges are numbered along the chain shown (N, C = ends). Where no end group is shown, it is not given here.

Biological target: integrin receptors expressed on surface of U87MG glioblastoma cells (Homo sapiens, UniProt P05106+P06756)
Assay: U87MG competition binding assay

## ECESGPCCRNCKFLKEGTICKRARGDDMDDYCNGKTCDCPRNPHKGPAT (disulfide 2-11, 7-32, 8-37, 20-39 (inferred)) [echistatin]
  IC50: 3.3 ± 0.6 nM
